Experimental data: patent US7745473B2, “Indole derivative for alkylating specific base sequence of DNA and alkylating agent and drug containing the derivative” (Kyoto University, priority 2004, dated 2010)
Entries after “also recorded” stand apart in the source; their conditions may differ.

Experiments:
[1] = tested on: long-chain DNA (pUC-II′; SEQ ID NO:7); experiment: DNA alkylation of 5′-Texas Red-labeled long-chain DNA, analysed by polyacrylamide gel electrophoresis; format: biochemical; settings: 23° C., 8 hours, FIG. 1
Experimental: A 5′-Texas Red-labeled DNA fragment (450 bp) (pUC-II′, SEQ ID NO:7) was prepared by a PCR method using the 5′-Texas Red-labeled 19-base-pair primer (pUC18 forward, 328-345; SEQ ID NO:6) and the 21-base-pair primer (pUC18 reverse, 1861-1881; SEQ ID NO:5), puc18 being used as a template.
The reaction of compounds (3-1) and (4-1) prepared in the above-described Synthesis Examples with DNA was studied using the long-chain DNA (pUC-II′; SEQ ID NO:7). An alkylation reaction was performed at 23° C. for 8 hours. The sequence alkylated was analyzed by polyacrylic gel electrophoresis for sequence determination. […] This sequence specificity can be explained by a model in which each compound dimerizes in the DNA minor groove to recognize the base sequence.
Analysis by polyacrylamide gel electrophoresis was performed by the following process: A standard reaction solution containing the 5′-Texas Red-end-labeled DNA fragment (10 nM), DMF (10% (v/v)), and an agent having a concentration described above in a sodium phosphate buffer (5 mM, total volume: 10 μL, pH=7.0) was charged into a microfuge tube (Eppendorf) and left standing at 23° C. for 8 hours. After completion of the reaction, the reaction was quenched by the addition of calf thymus DNA (1 mM, 1 μL). The resulting mixture was shaken at 90° C. for 5 minutes. […]

[2] = Stability under acidic and alkaline conditions by HPLC; format: physicochemical
Experimental: Analysis of stability under acidic and alkaline conditions by HPLC was performed by the following process: A reaction solution containing compound (3-1) or (4-1) (100 μM) in a total volume of 10 μL of an aqueous solution of 5% HCl (pH=1, DMF:H2O=1:9) or an aqueous solution of 5% NaHCO3 (pH=9, DMF:H2O=1:9) was charged into a microfuge tube (Eppendorf) and left standing at 37° C. After 30 minutes, 2 hours, and 24 hours, analysis of compound (4-1) (16.8 min) and compound (3-1) (15.1 min) was performed by HPLC (linear gradient of acetonitrile 0-100% in 50 mM ammonium formate, 20 min, flow rate: 1.0 mL/min, 254 nm).
The Py-Im polyamide containing the indole linker was evaluated for stability by product analysis on HPLC using compounds (4-1) and (3-1). […] Compound (4-1) was converted into compound (3-1) (30 minutes: 50%, 2 hours: 78%) in the alkaline aqueous NaHCO3 solution (pH=9) (left standing at 37° C. for 24 hours). […] Compound (3-1) was readily converted into compound (4-1) (30 minutes: 96%) in the acidic aqueous HCl solution (pH=1) (37° C.).

[3] = tested on: long-chain DNA (pUC-II; SEQ ID NO:4, pUC-I′; SEQ ID NO:1); experiment: DNA alkylation of 5′-Texas Red-labeled long-chain DNA, analysed by polyacrylamide gel electrophoresis; format: biochemical
Experimental: A 5′-Texas Red-labeled DNA fragment (450 bp) (pUC-I′, SEQ ID NO:1) was prepared by a PCR method using a 5′-Texas Red-labeled 20-base-pair primer, i.e., 5′-TexRed-[…]-3′ (pUC18 forward, 780-799; SEQ ID NO:2), and a 20-base-pair primer, i.e., 5′-[…]-3′ (pUC18 reverse, 1459-1478; SEQ ID NO:3), puc18 being used as a template. The DNA fragment was in a double-stranded state including a complementary strand (the following fragments were in the same state).
A 5′-Texas Red-labeled DNA fragment (450 bp) (pUC-II, SEQ ID NO:4) was prepared by a PCR method using a 5′-Texas Red-labeled 21-base-pair primer, i.e., 5′-TexRed-[…]-3′ (pUC18 reverse, 1861-1881; SEQ ID NO:5), and a 19-base-pair primer, i.e., 5-TGTAAAACGACGGCCAGTG-3′ (pUC18 forward, 328-345; SEQ ID NO:6), puc18 being used as a template.
(§1) Analysis by polyacrylamide gel electrophoresis was performed by the following process: A standard reaction solution containing the 5′-Texas Red-end-labeled DNA fragment (10 nM), DMF (10% (v/v)), and an agent having a concentration described above in a sodium phosphate buffer (5 mM, total volume: 10 μL, pH=7.0) was charged into a microfuge tube (Eppendorf) and left standing at 23° C. for 8 hours. After completion of the reaction, the reaction was quenched by the addition of calf thymus DNA (1 mM, 1 μL). The resulting mixture was shaken at 90° C. for 5 minutes. The DNA obtained by centrifugation under reduced pressure was dissolved by the addition of 8 μl, of loading dye (fushin red solution in DMF), shaken at 94° C. for 20 minutes, and then immediately cooled to 0° C. A 2-μL aliquot was separated electrophoretically on a 6% denaturing polyacrylamide gel using a Hitachi 5500-S DNA sequencer. The following tests were conducted in a similar way.
The reaction of compounds (3-2) and (3-3) prepared in the above-described Synthesis Examples with DNA was studied using the long-chain DNA (pUC-II; SEQ ID NO:4, pUC-I′; SEQ ID NO:1). An alkylation reaction was performed for 8 hours. The sequence alkylated was analyzed by polyacrylic gel electrophoresis for sequence determination. […] However, the difference in sequence recognition ability was observed. […] From the stand point of the sequence recognition ability, the molecular design of compound (3-2) was excellent.

[4] = tested on: human ER(+) breast cancer Br-10; experiment: Antitumor activity against transplantable human breast cancer in nude mice; format: in vivo, BALB/cA-nu/nu mice; settings: for T/C (%): treated group / control group ×100
Experimental: Antitumor activity of compound (4-2) against transplantable human ER(+) breast cancer Br-10 in nude mice was studied. Human ER(+) breast cancer Br-10 was subcutaneously transplanted in dorsal portions of 8-week-old BALB/cA-nu/nu mice through a trocar. Injection of 0.1 mL of EP Hormone Depot was intramuscularly administered in Br-10-transplant mice simultaneously with the transplantation. When the tumor volume reached about 100 mm^3, the mice were divided into 5 mice/group, and then the administration started.
Compound (4-2) was dissolved in ethanol, diluted with physiological saline, and subcutaneously injected in divided doses into 3 or 4 portions near the tumor once a day and 3 times every 3 days. The dose of compound (4-2) was 50 mg/kg (about 1 mg/mouse) in a volume of 0.05 mL/10 g. Physiological saline was subcutaneously injected in the control group. The length of the major axis (L) and the length of the minor axis (W) were measured every 3 days. The tumor volume was calculated with the following formula: Tumor volume (mm^3)=L(mm)×W^2(mm^2)/2 Comparison of the tumor volume between the compound (4-2) treated group and the control group was performed. […] Values shown in the table show relative estimation of each group when the tumor volume after 1 day in each group is defined as 1.0; and relative estimation calculated with (tumor volume of compound (4-2) treated group: T)/(tumor volume of control group: C)×100%.

[5] = tested on: long-chain DNA (λ-F10906; SEQ ID NO:8); experiment: DNA alkylation of 5′-Texas Red-labeled long-chain DNA, analysed by polyacrylamide gel electrophoresis; format: biochemical; settings: λ-F10906, nanomolar concentrations, FIG. 4
Experimental: A 5′-Texas Red-labeled DNA fragment (537 bp) (λ-F10906; SEQ ID NO:8) was prepared by a PCR method using a 5′-Texas Red-labeled 23-base-pair primer, i.e., 5′-TexRed-[…]-3′ (λ-DNA forward, 10960-10982; SEQ ID NO:9), and a 20-base-pair primer, i.e., 5′-[…]-3′ (λ-DNA reverse, 37007-37026; SEQ ID NO:10), λ-DNA being used as a template.
as §1
The reaction of compounds (3-2), (3-4), and (3-5) with DNA was studied using the long-chain DNA (λ-F10906; SEQ ID NO:8). The DNA-alkylating ability of each compound was evaluated.

[6] = 8 hours, pUC-II and pUC-I′, FIG. 2

CC(=O)Nc1cn(C)c(C(=O)Nc2cn(C)c(C(=O)Nc3ccc4[nH]c(C(=O)N5CC6CC67C5=CC(=O)c5ccccc57)cc4c3)n2)n1 (centres unmarked) [compound (3-1), AcImIm-Indole-CBI]
sequence-specific DNA alkylation [1]: selectively alkylated adenine located at site 1 (5′-CGGCCA-3′) at nanomolar concentrations
conversion into compound (4-1) ([2]; acidic aqueous HCl solution pH=1, 37° C., 30 minutes): 96%

CC(=O)Nc1cn(C)c(C(=O)Nc2cn(C)c(C(=O)Nc3cc(C(=O)NCCCC(=O)Nc4cn(C)c(C(=O)Nc5ccc6[nH]c(C(=O)N7CC8CC89C7=CC(=O)c7ccccc79)cc6c5)n4)n(C)c3)n2)n1 (centres unmarked) [compound (3-3), AcImImPy-γ-Im-Indole-CBI]
alkylated sites (sequence recognition ability) [3, 6]: alkylation of site 4 (5′-AGCCA-3′), which was a match sequence, was observed; also recorded: single-base-pair mismatch sequences in site 1 (5′-AGCTA-3′), site 2 (5′-AGTCA-3′), site 5 (5′-TACCA-3′), and the like were also observed
efficiency of DNA alkylation [3, 6]: efficient DNA alkylation comparable with that of a known Py-Im polyamide having a vinyl linker was observed at nanomolar concentrations
alkylation of guanine at match site 5′-TGCCG-3′ ([3]; pUC-I′ (SEQ ID NO:1)): no alkylation of guanine was observed

CC(=O)Nc1cn(C)c(C(=O)Nc2cn(C)c(C(=O)Nc3cc(C(=O)Nc4cc(C(=O)NCCCC(=O)Nc5cn(C)c(C(=O)Nc6cc(C(=O)Nc7ccc8[nH]c(C(=O)N9CC(CCl)c%10c9cc(O)c9ccccc%109)cc8c7)n(C)c6)n5)n(C)c4)n(C)c3)n2)n1 (centres unmarked) [compound (4-2), AcImImPyPy-γ-ImPy-Indole-seco-CBI]
suppression of tumor growth ([4]; 50 mg/kg subcutaneous near the tumor, Br-10 in nude mice): suppression of tumor growth was observed after the first administration
toxicity (weight loss of mice and the like) ([4]; 50 mg/kg subcutaneous, nude mice): toxicity that causes the weight loss of mice and the like was not observed
relative tumor volume (after 1 day = 1.0) ([4]; after 1 day, 50 mg/kg subcutaneous near the tumor): 1.0
T/C (%) ([4]; after 1 day): 100%
relative tumor volume (after 1 day = 1.0) ([4]; after 4 days, 50 mg/kg subcutaneous near the tumor): 1.1
T/C (%) ([4]; after 4 days): 78.6%
relative tumor volume (after 1 day = 1.0) ([4]; after 7 days, 50 mg/kg subcutaneous near the tumor): 1.4
T/C (%) ([4]; after 7 days): 82.4%
relative tumor volume (after 1 day = 1.0) ([4]; after 10 days, 50 mg/kg subcutaneous near the tumor): 1.4
T/C (%) ([4]; after 10 days): 66.7%
relative tumor volume (after 1 day = 1.0) ([4]; after 13 days, 50 mg/kg subcutaneous near the tumor): 1.5
T/C (%) ([4]; after 13 days): 55.6%
relative tumor volume (after 1 day = 1.0) ([4]; after 16 days, 50 mg/kg subcutaneous near the tumor): 2.0
T/C (%) ([4]; after 16 days): 64.5%

CC(=O)Nc1cn(C)c(C(=O)Nc2cn(C)c(C(=O)Nc3ccc4[nH]c(C(=O)N5CC(CCl)c6c5cc(O)c5ccccc65)cc4c3)n2)n1 (centres unmarked) [compound (4-1), AcImIm-Indole-seco-CBI]
sequence-specific DNA alkylation [1]: selectively alkylated adenine located at site 1 (5′-CGGCCA-3′) at nanomolar concentrations
conversion into compound (3-1) ([2]; alkaline aqueous NaHCO3 solution pH=9, 37° C., 30 minutes): 50%
conversion into compound (3-1) ([2]; alkaline aqueous NaHCO3 solution pH=9, 37° C., 2 hours): 78%
formation of other hydrolysates ([2]; alkaline aqueous NaHCO3 solution pH=9, 37° C., 24 hours): No other hydrolysates were formed
hydrolysis in acidic aqueous HCl solution ([2]; pH=1, 37° C., 24 hours): not hydrolyzed at all

CC(=O)Nc1cn(C)c(C(=O)Nc2cc(C(=O)Nc3cc(C(=O)Nc4cc(C(=O)NCCCC(=O)Nc5cn(C)c(C(=O)Nc6cc(C(=O)Nc7ccc8[nH]c(C(=O)N9CC%10CC%10%11C9=CC(=O)c9ccccc9%11)cc8c7)n(C)c6)n5)n(C)c4)n(C)c3)n(C)c2)n1 (centres unmarked) [compound (3-5), AcImPyPyPy-γ-ImPy-Indole-CBI]
sequence-specific DNA alkylation, alkylated sites [5]: alkylation of an only mismatch sequence (site 1: 5′-TGCTCA-3′) was observed

CC(=O)Nc1cn(C)c(C(=O)Nc2cn(C)c(C(=O)Nc3cc(C(=O)Nc4cc(C(=O)NCCCC(=O)Nc5cc(C(=O)Nc6cc(C(=O)Nc7ccc8[nH]c(C(=O)N9CC%10CC%10%11C9=CC(=O)c9ccccc9%11)cc8c7)n(C)c6)n(C)c5)n(C)c4)n(C)c3)n2)n1 (centres unmarked) [compound (3-4), AcImImPyPy-γ-PyPy-Indole-CBI]
sequence-specific DNA alkylation, alkylated sites [5]: Sequence-specific DNA alkylation (site 6: 5′-AATCCA-3′, site 7: 5′-TAACCA-3′)
